# Source: patent US7119088B2, “Triazole compounds useful in therapy” (Pfizer Inc., priority 2003, dated 2006)
# Structures can show the parent of a compound that is named as a salt.
# Target: T1, human V1A receptor (Homo sapiens, UniProt P37288)
# T1 construct: host or cells: CHO (CHO-hV1A), membrane preparation
# Test: V1A filter binding assay (screen 1.0)
# Details: [3H]-AVP binding to CHO-hV1A membranes; Ki by Cheng-Prusoff
# Description: 1.0 V1A Filter Binding Assay
# Receptor binding assays were performed on cellular membranes prepared from CHO cells stably expressing the human V1A receptor, (CHO-hV1A). The CHO-hV1A cell line was kindly provided under a licensing agreement by Marc Thibonnier, Dept. of Medicine, Case Western Reserve University School of Medicine, Cleveland, Ohio. CHO-hV1A cells were routinely maintained at 37° C. in humidified atmosphere with 5% CO2 in DMEM/Hams F12 nutrient mix supplemented with 10% fetal bovine serum, 2 mM L-glutamine, 15 mM HEPES and 400 μg/ml G418. For bulk production of cell pellets, adherent CHO-hV1A cells were grown to confluency of 90–100% in 850 cm^2 roller bottles containing a medium of DMEM/Hams F12 Nutrient Mix supplemented with 10% fetal bovine serum, 2 mM L-glutamine and 15 mM HEPES. Confluent CHO-hV1A cells were washed with phosphate-buffered saline (PBS), harvested into ice cold PBS and centrifuged at 1,000 rpm. Cell pellets were stored at −80° C. until use. Cell pellets were thawed on ice and homogenised in membrane preparation buffer consisting of 50 mM Tris-HCl, pH 7.4, 5 mM MgCl2 and supplemented with a protease inhibitor cocktail, (Roche). The cell homogenate was centrifuged at 1000 rpm, 10 min, 4° C. and the supernatant was removed and stored on ice. The remaining pellet was homogenised and centrifuged as before. The supernatants were pooled and centrifuged at 25,000×g for 30 min at 4° C. The pellet was resuspended in freezing buffer consisting of 50 mM Tris-HCl, pH 7.4, 5 mM MgCl2 and 20% glycerol and stored in small aliquots at −80° C. until use. Protein concentration was determined using Bradford reagent and BSA as a standard.
# Protein linearity followed by saturation binding studies were performed on each new batch of membrane. Membrane concentration was chosen that gave specific binding on the linear portion of the curve.
# Compounds were tested for their effects on [^3H]-AVP binding to CHO-hV1A membranes, (^3H-AVP; specific activity 65.5 Ci/mmol; NEN Life Sciences). Compounds were solubilised in dimethylsulfoxide (DMSO) and diluted to working concentration of 10% DMSO with assay buffer containing 50 mM Tris-HCL pH 7.4, 5 mM MgCl2 and 0.05% BSA. […] The binding reaction was initiated by the addition of 200 μl membrane and the plates were gently shaken for 60 min at room temperature. […] The filters were washed three times with 1 ml ice cold wash buffer containing 50 mM Tris-HCL pH 7.4 and 5 mM MgCl2. The plates were dried and 50 μl Microscint-O (Packard instruments) was added to each well. The plates were sealed and counted on a TopCount Microplate Scintillation Counter (Packard Instruments). Non-specific binding (NSB) was determined using 1 μM unlabelled d(CH2)5Tyr(Me)AVP ([β-mercapto-β,β-cyclopentamethylenepropionyl,0-Me-Tyr^2,Arg^8]-vasopressin ) (βMCPVP), (Sigma). The radioligand binding data was analysed using a four parameter logistic equation with the min forced to 0%. […] Specific binding was calculated by subtracting the mean NSB cpm from the mean Total cpm. For test compounds the amount of ligand bound to the receptor was expressed as % bound=(sample cpm—mean NSB cpm)/specific binding cpm×100. The % bound was plotted against the concentration of test compound and a sigmoidal curve was fitted. The inhibitory dissociation constant (Ki) was calculated using the Cheng-Prusoff equation: Ki=IC50/(1+[L]/Kd) where [L] is the concentration of ligand present in the well and Kd is the dissociation constant of the radioligand obtained from Scatchard plot analysis.
# T1 sequence (P37288 whole entry): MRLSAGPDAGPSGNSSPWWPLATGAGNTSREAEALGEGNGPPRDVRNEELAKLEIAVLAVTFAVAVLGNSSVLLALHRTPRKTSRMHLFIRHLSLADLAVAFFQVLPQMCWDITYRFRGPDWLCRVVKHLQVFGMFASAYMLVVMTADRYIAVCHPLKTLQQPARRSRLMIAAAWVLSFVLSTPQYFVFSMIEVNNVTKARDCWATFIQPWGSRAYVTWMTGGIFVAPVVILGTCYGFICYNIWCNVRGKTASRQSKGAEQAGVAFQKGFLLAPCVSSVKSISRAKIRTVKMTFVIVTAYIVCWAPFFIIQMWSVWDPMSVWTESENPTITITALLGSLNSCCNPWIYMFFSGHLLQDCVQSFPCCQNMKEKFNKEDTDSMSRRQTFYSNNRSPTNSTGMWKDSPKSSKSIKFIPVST
row,SMILES,Ki [nM]
1,"CN1CCOC(CN2Cc3cc(Cl)ccc3-n3c(nnc3C3CCN(c4ccccn4)CC3)C2)C1 (single isomer, unassigned) [Example 73, 8-Chloro-5-(4-methyl-morpholin-2-ylmethyl)-1-(3,4,5,6-tetrahydro-2H-[1,2′]bipyridinyl-4-yl)-5,6-dihydro-4H-2,3,5,10b-tetraaza-benzo[e]azulene]",6.84
2,"CN1CCOC(CN2Cc3cc(Cl)ccc3-n3c(nnc3C3CCN(c4ccccn4)CC3)C2)C1 (single isomer, unassigned) [Example 74, 8-Chloro-5-(4-methyl-morpholin-2-ylmethyl)-1-(3,4,5,6-tetrahydro-2H-[1,2′]bipyridinyl-4-yl)-5,6-dihydro-4H-2,3,5,10b-tetraaza-benzo[e]azulene]",6.02
3,"CC(C)N1Cc2cc(Cl)ccc2-n2c(nnc2C2CCN(c3ccccn3)CC2)C1 [Example 6, 8-Chloro-5-isopropyl-1-(3,4,5,6-tetrahydro-2H-[1,2′]bipyridinyl-4-yl)-5,6-dihydro-4H-2,3,5,10b-tetraaza-benzo[e]azulene trihydrochloride]",2.37
4,"CN1Cc2cc(Cl)ccc2-n2c(nnc2C2CCN(c3ncccn3)CC2)C1 [Example 13, 8-Chloro-5-methyl-1-(1-pyrimidin-2-yl-piperidin-4-yl)-5,6-dihydro-4H-2,3,5,10b-tetraaza-benzo[e]azulene]",13.9
5,"CS(=O)(=O)N1Cc2cc(Cl)ccc2-n2c(nnc2C2CCN(c3ncccn3)CC2)C1 [Example 15, 8-Chloro-5-methanesulfonyl-1-(1-pyrimidin-2-yl-piperidin-4-yl)-5,6-dihydro-4H-2,3,5,10b-tetraaza-benzo[e]azulene]",4.71
6,"CN1CCc2cc(Cl)ccc2-n2c(nnc2C2CCN(c3ccccn3)CC2)C1 [Example 24, 13-Chloro-8-methyl-3-(3,4,5,6-tetrahydro-2H-[1,2′]bipyridinyl-4-yl)-2,4,5,8-tetraaza-tricyclo[9.4.0.0*2,6*]pentadeca-1(11),3,5,12,14-pentaene]",1
7,"Clc1ccc2c(c1)CCOCc1nnc(C3CCN(c4ccccn4)CC3)n1-2 [Example 27, 13-Chloro-3-(3,4,5,6-tetrahydro-2H-[1,2′]bipyridinyl-4-yl)-8-oxa-2,4,5-triaza-tricyclo[9.4.0.0*2,6*]pentadeca-1(11),3,5,12,14-pentaene]",1.25
8,"CN(C)CC(=O)N1Cc2cc(Cl)ccc2-n2c(nnc2C2CCN(c3ccccn3)CC2)C1 [Example 38, 1-[8-Chloro-1-(3,4,5,6-tetrahydro-2H-[1,2′]bipyridinyl-4-yl)-4H,6H-2,3,5,10b-tetraaza-benzo[e]azulen-5-yl]-2-dimethylamino-ethanone]",4.63
9,O=C(N1CCOCC1)N1Cc2cc(Cl)ccc2-n2c(nnc2C2CCN(c3ccccn3)CC2)C1 [Example 59],1.32
10,"Clc1ccc2c(c1)CN(c1ncccn1)Cc1nnc(C3CCN(c4ccccn4)CC3)n1-2 [Example 93, 8-Chloro-5-pyrimidin-2-yl-1-(3,4,5,6-tetrahydro-2H-[1,2′]bipyridinyl-4-yl)-5,6-dihydro-4H-2,3,5,10b-tetraaza-benzo[e]azulene]",2.33
11,"CN(C)S(=O)(=O)N1Cc2cc(Cl)ccc2-n2c(nnc2C2CCN(c3ncccn3)CC2)C1 [Example 100, 8-Chloro-1-(1-pyrimidin-2-yl-piperidin-4-yl)-4H,6H-2,3,5,10b-tetraaza-benzo[e]azulene-5-sulphonic acid dimethylamide]",0.77
12,"CN1CCc2nnc(C3CCN(c4ccccn4)CC3)n2-c2ccc(Cl)cc2C1 [Example 102, 13-Chloro-9-methyl-3-(3,4,5,6-tetrahydro-2H-[1,2′]bipyridinyl-4-yl)-2,4,5,9-tetraaza-tricyclo[9.4.0.0*2,6*]pentadeca-1(11),3,5,12,14-pentaene]",4.16
13,"CN1CCc2cc(Cl)ccc2-n2c(nnc2C2CCN(c3ncccn3)CC2)C1 [Example 103, 13-Chloro-8-methyl-3-(1-pyrimidin-2-yl-piperidin-4-yl)-2,4,5,8-tetraaza-tricyclo[9.4.0.0*2,6*]pentadeca-1(11),3,5,12,14-pentaene]",2.02
